According to ChEMBL document CHEMBL1201861, “Genomics of Drug Sensitity in Cancer screening data, Wellcome Trust Sanger Institute”:

Key:
Assay in all cases: cells
COLO-824 = type: functional, cell-based, Homo sapiens; details: Homo sapiens, COLO-824
Description: SANGER: Inhibition of human COLO-824 cell growth in a cell viability assay.

CTB-1 = type: functional, cell-based, Homo sapiens; details: Homo sapiens, CTB-1
Description: SANGER: Inhibition of human CTB-1 cell growth in a cell viability assay.

CW-2 = type: functional, cell-based, Homo sapiens; details: Homo sapiens, CW-2;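 further: growth inhibition of CW-2 cells, read out by a cell viability assay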
Description: SANGER: Inhibition of human CW-2 cell growth in a cell viability assay.

D-263MG = type: functional, cell-based, Homo sapiens; details: Homo sapiens, D-263MG
Description: SANGER: Inhibition of human D-263MG cell growth in a cell viability assay.

DMS-79 = type: functional, cell-based, Homo sapiens; details: Homo sapiens, DMS-79;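 further: growth inhibition measured with a cell viability assay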
Description: SANGER: Inhibition of human DMS-79 cell growth in a cell viability assay.

EW-11 = type: functional, cell-based, Homo sapiens; details: Homo sapiens, EW-11;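 further: growth inhibition of human EW-11 cells, measured with a cell viability assay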
Description: SANGER: Inhibition of human EW-11 cell growth in a cell viability assay.

GOTO = type: functional, cell-based, Homo sapiens; details: Homo sapiens, GOTO;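 further: growth inhibition of GOTO cells, read out by a cell viability assay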
Description: SANGER: Inhibition of human GOTO cell growth in a cell viability assay.

HAL-01 = type: functional, cell-based, Homo sapiens; details: Homo sapiens, HAL-01;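 further: growth inhibition of human HAL-01 cells, read out with a cell viability assay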
Description: SANGER: Inhibition of human HAL-01 cell growth in a cell viability assay.

HCC1187 = type: functional, cell-based, Homo sapiens; details: Homo sapiens, HCC1187;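 further: growth inhibition of HCC1187 cells, read out with a cell viability assay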
Description: SANGER: Inhibition of human HCC1187 cell growth in a cell viability assay.

HuTu80 = type: functional, cell-based, Homo sapiens, HUTU-80; details: Homo sapiens, HuTu80;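 further: growth inhibition of HuTu80 human cells, determined with a cell viability readout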
Description: SANGER: Inhibition of human HUTU-80 cell growth in a cell viability assay.

IA-LM = type: functional, cell-based, Homo sapiens; details: Homo sapiens, IA-LM;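 further: cell viability assay measuring growth inhibition of human IA-LM cells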
Description: SANGER: Inhibition of human IA-LM cell growth in a cell viability assay.

IST-MES1 = type: functional, cell-based, Homo sapiens; details: Homo sapiens, IST-MES1;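 further: growth inhibition of IST-MES1 cells, measured with a cell viability assay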
Description: SANGER: Inhibition of human IST-MES1 cell growth in a cell viability assay.

J-RT3-T3-5 = type: functional, cell-based, Homo sapiens; details: Homo sapiens, J-RT3-T3-5;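 further: cell viability assay measuring growth inhibition of human J-RT3-T3-5 cells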
Description: SANGER: Inhibition of human J-RT3-T3-5 cell growth in a cell viability assay.

JAR = type: functional, cell-based, Homo sapiens; details: Homo sapiens, JAR;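 further: growth inhibition of human JAR cells determined with a cell viability assay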
Description: SANGER: Inhibition of human JAR cell growth in a cell viability assay.

KARPAS-45 = type: functional, cell-based, Homo sapiens; details: Homo sapiens, KARPAS-45;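 further: inhibition of cell line growth, read out through a viability assay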
Description: SANGER: Inhibition of human KARPAS-45 cell growth in a cell viability assay.

KLE = type: functional, cell-based, Homo sapiens; details: Homo sapiens, KLE;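 further: growth inhibition of human KLE cells, read out with a cell viability assay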
Description: SANGER: Inhibition of human KLE cell growth in a cell viability assay.

KY821 = type: functional, cell-based, Homo sapiens; details: Homo sapiens, KY821;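 further: growth inhibition of human KY821 cells, read out by a cell viability assay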
Description: SANGER: Inhibition of human KY821 cell growth in a cell viability assay.

L-363 = type: functional, cell-based, Homo sapiens; details: Homo sapiens, L-363
Description: SANGER: Inhibition of human L-363 cell growth in a cell viability assay.

LB373-MEL-D = type: functional, cell-based, Homo sapiens; details: Homo sapiens, LB373-MEL-D;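 further: growth inhibition of the cell line, read out in a cell viability assay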
Description: SANGER: Inhibition of human LB373-MEL-D cell growth in a cell viability assay.

LNCaP-Clone-FGC = type: functional, cell-based, Homo sapiens; details: Homo sapiens, LNCaP-Clone-FGC
Description: SANGER: Inhibition of human LNCaP-Clone-FGC cell growth in a cell viability assay.

LS-123 = type: functional, cell-based, Homo sapiens; details: Homo sapiens, LS-123
Description: SANGER: Inhibition of human LS-123 cell growth in a cell viability assay.

LU-139 = type: functional, cell-based, Homo sapiens; details: Homo sapiens, LU-139
Description: SANGER: Inhibition of human LU-139 cell growth in a cell viability assay.

MEG-01 = type: functional, cell-based, Homo sapiens; details: Homo sapiens, MEG-01;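 further: growth inhibition of MEG-01 cells, read out by a cell viability assay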
Description: SANGER: Inhibition of human MEG-01 cell growth in a cell viability assay.

MFM-223 = type: functional, cell-based, Homo sapiens; details: Homo sapiens, MFM-223
Description: SANGER: Inhibition of human MFM-223 cell growth in a cell viability assay.

ML-2 = type: functional, cell-based, Homo sapiens; details: Homo sapiens, ML-2;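 further: growth inhibition of ML-2 cells, measured with a cell viability readout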
Description: SANGER: Inhibition of human ML-2 cell growth in a cell viability assay.

MOLT-16 = type: functional, cell-based, Homo sapiens; details: Homo sapiens, MOLT-16;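 further: growth inhibition of human MOLT-16 cells, read out with a cell viability assay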
Description: SANGER: Inhibition of human MOLT-16 cell growth in a cell viability assay.

NB12 = type: functional, cell-based, Homo sapiens; details: Homo sapiens, NB12;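 further: growth inhibition of human NB12 cells, read out by a cell viability assay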
Description: SANGER: Inhibition of human NB12 cell growth in a cell viability assay.

NCI-H526 = type: functional, cell-based, Homo sapiens; details: Homo sapiens, NCI-H526;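 further: growth inhibition of the human NCI-H526 cell line, measured by a cell viability assay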
Description: SANGER: Inhibition of human NCI-H526 cell growth in a cell viability assay.

NCI-N87 = type: functional, cell-based, Homo sapiens; details: Homo sapiens, NCI-N87;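 further: growth inhibition of human NCI-N87 cells, read out with a cell viability assay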
Description: SANGER: Inhibition of human NCI-N87 cell growth in a cell viability assay.

SNU-5 = type: functional, cell-based, Homo sapiens; details: Homo sapiens, SNU-5;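 further: cell viability readout used to measure growth inhibition in human NCI-SNU-5 cells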
Description: SANGER: Inhibition of human NCI-SNU-5 cell growth in a cell viability assay.

NH-12 = type: functional, cell-based, Homo sapiens; details: Homo sapiens, NH-12;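 further: growth inhibition of NH-12 cells, read out with a cell viability assay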
Description: SANGER: Inhibition of human NH-12 cell growth in a cell viability assay.

NMC-G1 = type: functional, cell-based, Homo sapiens; details: Homo sapiens, NMC-G1;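 further: growth inhibition of the NMC-G1 cell line, measured with a cell viability read-out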
Description: SANGER: Inhibition of human NMC-G1 cell growth in a cell viability assay.

ONS-76 = type: functional, cell-based, Homo sapiens; details: Homo sapiens, ONS-76;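 further: growth inhibition of human ONS-76 cells, read out with a cell viability assay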
Description: SANGER: Inhibition of human ONS-76 cell growth in a cell viability assay.

RCC10RGB = type: functional, cell-based, Homo sapiens; details: Homo sapiens, RCC10RGB;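 further: growth inhibition of human RCC10RGB cells, read out by a cell viability assay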
Description: SANGER: Inhibition of human RCC10RGB cell growth in a cell viability assay.

RH-1 = type: functional, cell-based, Homo sapiens; details: Homo sapiens, RH-1;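 further: growth inhibition of human RH-1 cells, read out with a cell viability assay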
Description: SANGER: Inhibition of human RH-1 cell growth in a cell viability assay.

RPMI-8866 = type: functional, cell-based, Homo sapiens; details: Homo sapiens, RPMI-8866
Description: SANGER: Inhibition of human RPMI-8866 cell growth in a cell viability assay.

SK-N-FI = type: functional, cell-based, Homo sapiens; details: Homo sapiens, SK-N-FI;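 further: cell viability assay measuring growth inhibition of human SK-N-FI cells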
Description: SANGER: Inhibition of human SK-N-FI cell growth in a cell viability assay.

SK-NEP-1 = type: functional, cell-based, Homo sapiens; details: Homo sapiens, SK-NEP-1;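 further: growth inhibition of human SK-NEP-1 cells, read out by a cell viability assay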
Description: SANGER: Inhibition of human SK-NEP-1 cell growth in a cell viability assay.

SNU-C2B = type: functional, cell-based, Homo sapiens; details: Homo sapiens, SNU-C2B;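 further: cell viability readout used to measure compound-driven suppression of SNU-C2B cell proliferation, IC50 marking half-maximal growth inhibition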
Description: SANGER: Inhibition of human SNU-C2B cell growth in a cell viability assay.

TE-1 = type: functional, cell-based, Homo sapiens; details: Homo sapiens, TE-1;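 further: growth inhibition of the human TE-1 cell line, read out with a cell viability assay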
Description: SANGER: Inhibition of human TE-1 cell growth in a cell viability assay.

8-MG-BA = type: functional, cell-based, Homo sapiens; details: Homo sapiens, 8-MG-BA;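 further: growth inhibition of 8-MG-BA cells, read out with a cell viability assay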
Description: SANGER: Inhibition of human 8-MG-BA cell growth in a cell viability assay.

BB65-RCC = type: functional, cell-based, Homo sapiens; details: Homo sapiens, BB65-RCC;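 further: growth inhibition of the cell line, measured with a cell viability assay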
Description: SANGER: Inhibition of human BB65-RCC cell growth in a cell viability assay.

BE-13 = type: functional, cell-based, Homo sapiens; details: Homo sapiens, BE-13;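 further: growth inhibition of human BE-13 cells, measured with a cell viability assay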
Description: SANGER: Inhibition of human BE-13 cell growth in a cell viability assay.

BV-173 = type: functional, cell-based, Homo sapiens; details: Homo sapiens, BV-173
Description: SANGER: Inhibition of human BV-173 cell growth in a cell viability assay.

Becker = type: functional, cell-based, Homo sapiens; details: Homo sapiens, Becker;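 further: growth inhibition of Becker cells, read out with a cell viability assay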
Description: SANGER: Inhibition of human Becker cell growth in a cell viability assay.

C8166 = type: functional, cell-based, Homo sapiens; details: Homo sapiens, C8166;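 further: growth inhibition of human C8166 cells measured by a cell viability assay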
Description: SANGER: Inhibition of human C8166 cell growth in a cell viability assay.

TE-6 = type: functional, cell-based, Homo sapiens; details: Homo sapiens, TE-6;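 further: growth inhibition of TE-6 cells, read out with a cell viability assay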
Description: SANGER: Inhibition of human TE-6 cell growth in a cell viability assay.

COLO-684 = type: functional, cell-based, Homo sapiens; details: Homo sapiens, COLO-684
Description: SANGER: Inhibition of human COLO-684 cell growth in a cell viability assay.

`O=C(O)c1ccc(-c2c[nH]c3ncc(-c4ccccc4)cc23)cc1C1CCCC1` [GSK-650394] showed an IC50 (COLO-824) of over 16 µM, an IC50 (CTB-1) of over 16 µM and an IC50 (CW-2) of over 16 µM. The IC50 (D-263MG) was 13.7 µM, the IC50 (DMS-79) was over 16 µM and the IC50 (EW-11) was over 16 µM. The IC50 (GOTO) was over 16 µM, the IC50 (HAL-01) was over 16 µM and the IC50 (HCC1187) was over 16 µM. It also gave an IC50 (HuTu80) of 1.3 µM, an IC50 (IA-LM) of 4.12 µM and an IC50 (IST-MES1) of over 16 µM. The IC50 (J-RT3-T3-5) was over 16 µM, the IC50 (JAR) was over 16 µM and the IC50 (KARPAS-45) was over 16 µM. For the same molecule, the IC50 (KLE) was over 16 µM, the IC50 (KY821) was over 16 µM and the IC50 (L-363) was over 16 µM. The IC50 (LB373-MEL-D) was over 16 µM, the IC50 (LNCaP-Clone-FGC) was over 16 µM and the IC50 (LS-123) was over 16 µM. The IC50 (LU-139) was over 16 µM, the IC50 (MEG-01) was 5.26 µM and the IC50 (MFM-223) was over 16 µM. For the same molecule, the IC50 (ML-2) was over 16 µM, the IC50 (MOLT-16) was 3.52 µM and the IC50 (NB12) was over 16 µM. The IC50 (NCI-H526) was 6.04 µM, the IC50 (NCI-N87) was over 16 µM and the IC50 (SNU-5) was over 16 µM. For the same molecule, the IC50 (NH-12) was 12.3 µM, the IC50 (NMC-G1) was over 16 µM and the IC50 (ONS-76) was 4.14 µM. For the same molecule, the IC50 (RCC10RGB) was over 16 µM, the IC50 (RH-1) was 7.73 µM and the IC50 (RPMI-8866) was over 16 µM. The IC50 (SK-N-FI) was over 16 µM, the IC50 (SK-NEP-1) was over 16 µM and the IC50 (SNU-C2B) was over 16 µM. The IC50 (TE-1) was over 16 µM, the IC50 (8-MG-BA) was 15.6 µM and the IC50 (BB65-RCC) was over 16 µM. It also gave an IC50 (BE-13) of over 16 µM, an IC50 (BV-173) of over 16 µM and an IC50 (Becker) of over 16 µM. The IC50 (C8166) was over 16 µM, the IC50 (TE-6) was over 16 µM and the IC50 (COLO-684) was over 16 µM.

`C=C(c1ccc(C(=O)O)cc1)c1cc2c(cc1C)C(C)(C)CCC2(C)C` [BEXAROTENE] showed an IC50 (COLO-824) of over 8 µM, an IC50 (CTB-1) of over 8 µM and an IC50 (CW-2) of over 8 µM. For the same molecule, the IC50 (D-263MG) was over 8 µM, the IC50 (DMS-79) was over 8 µM and the IC50 (EW-11) was over 8 µM. It also gave an IC50 (GOTO) of over 8 µM, an IC50 (HAL-01) of over 8 µM and an IC50 (HCC1187) of over 8 µM. It also gave an IC50 (HuTu80) of over 8 µM, an IC50 (IA-LM) of 7.36 µM and an IC50 (IST-MES1) of over 8 µM. For the same molecule, the IC50 (J-RT3-T3-5) was over 8 µM, the IC50 (JAR) was over 8 µM and the IC50 (KLE) was over 8 µM. It also gave an IC50 (KY821) of over 8 µM, an IC50 (L-363) of over 8 µM and an IC50 (LB373-MEL-D) of over 8 µM. The IC50 (LNCaP-Clone-FGC) was over 8 µM, the IC50 (LS-123) was over 8 µM and the IC50 (LU-139) was over 8 µM. It also gave an IC50 (MEG-01) of over 8 µM, an IC50 (MFM-223) of over 8 µM and an IC50 (ML-2) of over 8 µM. For the same molecule, the IC50 (MOLT-16) was over 8 µM, the IC50 (NB12) was over 8 µM and the IC50 (NCI-H526) was over 8 µM. It also gave an IC50 (NCI-N87) of over 8 µM, an IC50 (SNU-5) of over 8 µM and an IC50 (NH-12) of over 8 µM. The IC50 (NMC-G1) was over 8 µM, the IC50 (ONS-76) was over 8 µM and the IC50 (RCC10RGB) was over 8 µM. It also gave an IC50 (RH-1) of over 8 µM, an IC50 (RPMI-8866) of over 8 µM and an IC50 (SK-N-FI) of over 8 µM. The IC50 (SK-NEP-1) was over 8 µM, the IC50 (SNU-C2B) was over 8 µM and the IC50 (TE-1) was over 8 µM. It also gave an IC50 (8-MG-BA) of over 8 µM, an IC50 (BB65-RCC) of over 8 µM and an IC50 (BE-13) of over 8 µM. The IC50 (BV-173) was over 8 µM, the IC50 (Becker) was over 8 µM and the IC50 (C8166) was over 8 µM. It also gave an IC50 (TE-6) of over 8 µM and an IC50 (COLO-684) of over 8 µM.

`COc1cccc2c1C(=O)c1c(O)c3c(c(O)c1C2=O)C[C@@](O)(C(=O)CO)C[C@@H]3O[C@H]1C[C@H](N)[C@H](O)[C@H](C)O1` [DOXORUBICIN] was tested, and the IC50 (COLO-824) was over 1.02 µM, the IC50 (CTB-1) was 0.0642 µM and the IC50 (CW-2) was over 1.02 µM. The IC50 (D-263MG) was 0.306 µM, the IC50 (DMS-79) was over 1.02 µM and the IC50 (EW-11) was 0.342 µM. The IC50 (GOTO) was 0.286 µM, the IC50 (HAL-01) was 0.313 µM and the IC50 (HCC1187) was 0.591 µM. The IC50 (HuTu80) was 0.00212 µM, the IC50 (IA-LM) was 0.0635 µM and the IC50 (IST-MES1) was 0.323 µM. For the same molecule, the IC50 (J-RT3-T3-5) was 0.0963 µM, the IC50 (JAR) was 0.626 µM and the IC50 (KARPAS-45) was over 1.02 µM. It also gave an IC50 (KLE) of 0.175 µM, an IC50 (KY821) of over 1.02 µM and an IC50 (L-363) of 0.324 µM. The IC50 (LB373-MEL-D) was 0.345 µM, the IC50 (LNCaP-Clone-FGC) was 0.204 µM and the IC50 (LS-123) was 0.0185 µM. It also gave an IC50 (LU-139) of 0.345 µM, an IC50 (MEG-01) of 0.177 µM and an IC50 (MFM-223) of over 1.02 µM. The IC50 (ML-2) was 0.135 µM, the IC50 (MOLT-16) was 0.29 µM and the IC50 (NB12) was 0.277 µM. The IC50 (NCI-H526) was 0.05 µM, the IC50 (NCI-N87) was 0.48 µM and the IC50 (SNU-5) was 0.57 µM. The IC50 (NH-12) was 0.076 µM, the IC50 (NMC-G1) was 0.139 µM and the IC50 (ONS-76) was 0.0189 µM. The IC50 (RCC10RGB) was over 1.02 µM, the IC50 (RH-1) was 0.00673 µM and the IC50 (RPMI-8866) was 0.192 µM. The IC50 (SK-N-FI) was over 1.02 µM, the IC50 (SK-NEP-1) was 0.116 µM and the IC50 (SNU-C2B) was 0.461 µM. For the same molecule, the IC50 (TE-1) was 0.0764 µM, the IC50 (8-MG-BA) was 0.0221 µM and the IC50 (BB65-RCC) was 0.149 µM. The IC50 (BE-13) was 0.051 µM, the IC50 (BV-173) was 0.251 µM and the IC50 (Becker) was 0.522 µM. For the same molecule, the IC50 (C8166) was 0.0333 µM, the IC50 (TE-6) was 0.47 µM and the IC50 (COLO-684) was 0.22 µM.
